Two molecules from BindingDB's records for doi:10.1038/sj.bjp.0702059 (Smithkline Beecham Pharmaceuticals, 1998) can be followed below.

For assay [1], the target named is 5-hydroxytryptamine receptor 7 (Homo sapiens, UniProt P34969).
Assay [2] addresses 5-hydroxytryptamine receptor 2B (Homo sapiens, UniProt P41595).
Assay [3] deals with T1, 5-hydroxytryptamine receptor 1F (Homo sapiens, UniProt P30939).
T1 sequence (P30939 whole entry): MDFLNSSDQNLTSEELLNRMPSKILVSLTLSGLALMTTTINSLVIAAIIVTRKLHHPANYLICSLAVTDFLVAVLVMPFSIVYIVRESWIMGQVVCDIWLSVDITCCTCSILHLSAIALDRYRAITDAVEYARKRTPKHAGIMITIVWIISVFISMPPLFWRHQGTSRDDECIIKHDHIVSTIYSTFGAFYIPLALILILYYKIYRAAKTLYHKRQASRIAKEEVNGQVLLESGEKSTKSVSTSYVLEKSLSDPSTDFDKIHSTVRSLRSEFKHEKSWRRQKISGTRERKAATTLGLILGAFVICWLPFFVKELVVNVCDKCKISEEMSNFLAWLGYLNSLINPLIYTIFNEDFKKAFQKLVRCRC

Assay [4] deals with 5-hydroxytryptamine receptor 2A (Homo sapiens, UniProt P28223).
Chain of 5-hydroxytryptamine receptor 2A (P28223 whole entry): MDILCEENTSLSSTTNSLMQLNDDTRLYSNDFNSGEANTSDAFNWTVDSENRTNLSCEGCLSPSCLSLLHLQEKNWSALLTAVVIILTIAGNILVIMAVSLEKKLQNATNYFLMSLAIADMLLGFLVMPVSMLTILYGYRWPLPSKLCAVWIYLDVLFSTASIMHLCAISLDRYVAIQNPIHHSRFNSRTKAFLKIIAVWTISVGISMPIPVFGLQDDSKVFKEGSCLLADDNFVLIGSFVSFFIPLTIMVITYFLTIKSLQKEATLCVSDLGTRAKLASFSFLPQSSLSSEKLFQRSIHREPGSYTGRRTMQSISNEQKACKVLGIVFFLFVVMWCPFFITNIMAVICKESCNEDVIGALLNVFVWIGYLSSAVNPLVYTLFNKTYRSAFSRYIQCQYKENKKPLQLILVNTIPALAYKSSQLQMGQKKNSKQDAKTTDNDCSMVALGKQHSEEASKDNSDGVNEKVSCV
The target of assay [5] is 5-hydroxytryptamine receptor 4 (Homo sapiens, UniProt Q13639).
Chain of 5-hydroxytryptamine receptor 4 (Q13639 whole entry): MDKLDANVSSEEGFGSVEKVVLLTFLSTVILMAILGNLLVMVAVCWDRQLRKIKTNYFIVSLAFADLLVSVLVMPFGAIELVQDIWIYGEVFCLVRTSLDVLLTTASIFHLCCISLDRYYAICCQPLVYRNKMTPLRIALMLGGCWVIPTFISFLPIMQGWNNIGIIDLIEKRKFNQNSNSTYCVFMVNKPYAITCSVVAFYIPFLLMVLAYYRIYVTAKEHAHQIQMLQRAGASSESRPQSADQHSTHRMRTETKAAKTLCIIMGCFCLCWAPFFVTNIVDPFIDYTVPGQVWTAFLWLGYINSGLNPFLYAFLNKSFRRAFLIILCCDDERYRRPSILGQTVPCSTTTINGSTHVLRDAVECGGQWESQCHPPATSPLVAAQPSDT
The target in assay [6] is 5-hydroxytryptamine receptor 1E (Homo sapiens, UniProt P28566).
Chain of 5-hydroxytryptamine receptor 1E (P28566 whole entry): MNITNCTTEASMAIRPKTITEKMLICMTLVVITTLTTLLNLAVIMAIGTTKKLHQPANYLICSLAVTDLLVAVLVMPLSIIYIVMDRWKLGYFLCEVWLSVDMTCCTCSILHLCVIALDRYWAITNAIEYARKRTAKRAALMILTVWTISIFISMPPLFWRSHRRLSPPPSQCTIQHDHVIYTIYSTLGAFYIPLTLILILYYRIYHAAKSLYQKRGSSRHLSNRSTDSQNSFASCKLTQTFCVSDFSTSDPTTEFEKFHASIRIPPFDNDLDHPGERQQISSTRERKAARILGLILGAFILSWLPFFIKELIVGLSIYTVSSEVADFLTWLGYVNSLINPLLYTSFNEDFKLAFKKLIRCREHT
Assay [7] has as its target 5-hydroxytryptamine receptor 6 (Homo sapiens, UniProt P50406).
Assay [8] addresses 5-hydroxytryptamine receptor 1B (Homo sapiens, UniProt P28222).

pKi: −log10 of the molar value.

Chain of 5-hydroxytryptamine receptor 7 (P34969 whole entry): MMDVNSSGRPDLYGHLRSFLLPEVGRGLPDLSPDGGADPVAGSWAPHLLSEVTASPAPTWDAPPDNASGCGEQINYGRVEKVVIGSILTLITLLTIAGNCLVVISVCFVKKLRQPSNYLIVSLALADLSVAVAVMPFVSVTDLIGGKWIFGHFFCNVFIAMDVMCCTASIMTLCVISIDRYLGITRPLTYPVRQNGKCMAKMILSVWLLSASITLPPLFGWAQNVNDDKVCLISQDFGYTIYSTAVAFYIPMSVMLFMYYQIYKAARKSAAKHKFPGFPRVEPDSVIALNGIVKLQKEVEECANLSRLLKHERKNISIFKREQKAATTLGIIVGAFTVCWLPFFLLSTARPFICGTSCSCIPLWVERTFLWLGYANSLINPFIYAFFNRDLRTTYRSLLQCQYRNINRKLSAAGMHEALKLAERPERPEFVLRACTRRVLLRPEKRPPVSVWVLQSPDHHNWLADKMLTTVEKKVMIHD
Chain of 5-hydroxytryptamine receptor 1B (P28222 whole entry): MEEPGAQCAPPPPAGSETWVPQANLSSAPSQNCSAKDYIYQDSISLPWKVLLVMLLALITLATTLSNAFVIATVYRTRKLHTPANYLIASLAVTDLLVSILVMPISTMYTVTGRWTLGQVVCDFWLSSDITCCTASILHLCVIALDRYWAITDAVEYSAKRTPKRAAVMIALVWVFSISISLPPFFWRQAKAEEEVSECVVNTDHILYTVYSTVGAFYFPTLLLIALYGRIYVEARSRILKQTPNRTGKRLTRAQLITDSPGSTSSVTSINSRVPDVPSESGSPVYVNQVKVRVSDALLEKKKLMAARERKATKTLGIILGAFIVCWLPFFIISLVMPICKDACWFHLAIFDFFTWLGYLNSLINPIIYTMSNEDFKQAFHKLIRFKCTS
Chain of 5-hydroxytryptamine receptor 6 (P50406 whole entry): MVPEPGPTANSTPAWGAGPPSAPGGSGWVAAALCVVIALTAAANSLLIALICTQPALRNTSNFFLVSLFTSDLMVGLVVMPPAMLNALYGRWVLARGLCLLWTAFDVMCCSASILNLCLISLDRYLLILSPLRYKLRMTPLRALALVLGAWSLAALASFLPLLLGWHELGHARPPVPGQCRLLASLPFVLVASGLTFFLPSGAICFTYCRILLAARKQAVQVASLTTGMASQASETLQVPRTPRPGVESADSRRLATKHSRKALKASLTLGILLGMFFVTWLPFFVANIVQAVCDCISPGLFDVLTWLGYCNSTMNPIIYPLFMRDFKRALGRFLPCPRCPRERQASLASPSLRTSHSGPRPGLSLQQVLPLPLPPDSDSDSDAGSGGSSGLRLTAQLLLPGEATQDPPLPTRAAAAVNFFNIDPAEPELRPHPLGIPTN
Chain of 5-hydroxytryptamine receptor 2B (P41595 whole entry): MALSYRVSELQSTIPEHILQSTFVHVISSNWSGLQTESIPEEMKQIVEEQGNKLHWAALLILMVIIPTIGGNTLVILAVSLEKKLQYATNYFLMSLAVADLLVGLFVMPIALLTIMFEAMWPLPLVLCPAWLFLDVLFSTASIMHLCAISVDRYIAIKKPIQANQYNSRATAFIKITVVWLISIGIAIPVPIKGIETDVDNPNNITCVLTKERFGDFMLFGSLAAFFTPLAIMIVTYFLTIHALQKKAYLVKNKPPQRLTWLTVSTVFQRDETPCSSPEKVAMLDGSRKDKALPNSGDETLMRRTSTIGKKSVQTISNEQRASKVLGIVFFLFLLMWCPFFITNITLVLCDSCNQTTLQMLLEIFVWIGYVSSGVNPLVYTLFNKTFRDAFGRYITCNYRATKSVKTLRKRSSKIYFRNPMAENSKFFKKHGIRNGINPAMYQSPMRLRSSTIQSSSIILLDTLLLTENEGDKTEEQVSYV

`Cc1nc(-c2ccc(-c3ccc(C(=O)N4CCc5cc6c(cc54)C4(CCN(C)CC4)CO6)cc3)c(C)c2)no1` [4-[2-methyl-4-(5-methyl-1,2,4-oxadiazol-3-yl)phenyl]phenyl-1'-methylspiro[3,5,6,7-tetrahydro-2H-furo[2,3-f]indole-3,4'-(hexahydropyridine)]-5-ylmethanone]: the pKi is 6.00 in assay [1]; 5.50 in assay [2]; less than 5.00 in assay [3]; 5.92 in assay [4]; 5.69 in assay [5]; less than 5.00 in assay [6]. The same molecule had a pKi in assay [7] of 5.67.

Turning to `COc1ccc(NC(=O)c2ccc(-c3ccc(-c4noc(C)n4)cc3C)cc2)cc1N1CCN(C)CC1` [SMR001230745], in assay [8], the pKi is 9.03.
